# Assay results: publication PMC8164802, “Biological evaluation of Safrole oil and Safrole oil Nanoemulgel as antioxidant, antidiabetic, antibacterial, antifungal and anticancer” (BMC Complementary Medicine and Therapies, 2021)
# Target: T1, porcine pancreatic α-amylase (Sus scrofa, UniProt P00690)
# T1 construct: gene AMY2
# Assay: DNSA colorimetric assay of starch hydrolysis, […] nm
# Type: biochemical
# T1 sequence (P00690 16-511): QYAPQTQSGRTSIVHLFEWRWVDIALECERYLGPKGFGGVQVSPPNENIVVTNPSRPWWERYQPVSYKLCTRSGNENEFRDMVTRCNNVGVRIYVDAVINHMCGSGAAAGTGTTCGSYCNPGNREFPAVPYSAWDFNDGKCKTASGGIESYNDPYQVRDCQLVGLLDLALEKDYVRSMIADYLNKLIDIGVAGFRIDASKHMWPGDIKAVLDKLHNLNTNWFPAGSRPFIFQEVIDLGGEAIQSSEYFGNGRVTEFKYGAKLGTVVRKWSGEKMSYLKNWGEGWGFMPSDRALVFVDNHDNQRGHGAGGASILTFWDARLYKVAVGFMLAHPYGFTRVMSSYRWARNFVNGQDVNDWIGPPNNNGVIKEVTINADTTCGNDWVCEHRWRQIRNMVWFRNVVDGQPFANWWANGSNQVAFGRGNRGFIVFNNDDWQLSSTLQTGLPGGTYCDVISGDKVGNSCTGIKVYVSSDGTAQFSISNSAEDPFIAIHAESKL
smiles,measurement,value
"C=CCc1ccc2c(c1)OCO2 [Safrole, 1-allyl-3,4-methylenedioxybenzene]",IC50,70 µM
